This is an account of results in US8598357B2, “Benzodioxole piperidine compounds” (Hoffmann-La Roche Inc., priority 2011, dated 2013).

Each structure is given as a SMILES string. Read-outs that look alike come from different tables or passages of the source.

One assay deals with D3 receptor (Homo sapiens (Human), UniProt P35462). In words: Radioligand binding assay ([3H]-spiperone) on membranes of HEK293 EBNA cells expressing human D3 receptor. Particulars: read-out: D3 Ki; human receptor in HEK293 EBNA cells; 0.5 nM [3H]-spiperone.
A further assay concerns the target 5-HT2A receptor (Homo sapiens (Human), UniProt P28223). In words: Radioligand binding assay ([3H]-ketanserin) on membranes of HEK293 EBNA cells expressing human 5-HT2A receptor. Particulars: read-out: 5HT2A Ki.
A further assay addresses D2 receptor (Homo sapiens (Human), UniProt P14416). The assay is described as follows: Radioligand binding assay ([3H]-spiperone) on membranes of HEK293 EBNA cells expressing human D2 receptor. Conditions: human receptor in HEK293 EBNA cells; 0.7 nM [3H]-spiperone.
[1] abbreviates: human receptor in HEK293 EBNA cells, 1.1 nM [3H]-ketanserin.

D2 receptor, sequence (P14416 whole entry): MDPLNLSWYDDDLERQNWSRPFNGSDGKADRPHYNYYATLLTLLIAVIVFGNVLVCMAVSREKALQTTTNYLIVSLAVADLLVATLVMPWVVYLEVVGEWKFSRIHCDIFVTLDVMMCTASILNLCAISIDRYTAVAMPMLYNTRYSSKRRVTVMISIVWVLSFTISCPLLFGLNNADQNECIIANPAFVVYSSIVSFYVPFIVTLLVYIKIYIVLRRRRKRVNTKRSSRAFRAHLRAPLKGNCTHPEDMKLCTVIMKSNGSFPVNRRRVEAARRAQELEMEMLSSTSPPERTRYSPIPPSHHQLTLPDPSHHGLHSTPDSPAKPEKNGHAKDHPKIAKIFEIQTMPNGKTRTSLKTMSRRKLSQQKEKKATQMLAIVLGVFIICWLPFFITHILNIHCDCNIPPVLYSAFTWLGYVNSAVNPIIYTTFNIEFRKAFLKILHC
D3 receptor, sequence (P35462 whole entry): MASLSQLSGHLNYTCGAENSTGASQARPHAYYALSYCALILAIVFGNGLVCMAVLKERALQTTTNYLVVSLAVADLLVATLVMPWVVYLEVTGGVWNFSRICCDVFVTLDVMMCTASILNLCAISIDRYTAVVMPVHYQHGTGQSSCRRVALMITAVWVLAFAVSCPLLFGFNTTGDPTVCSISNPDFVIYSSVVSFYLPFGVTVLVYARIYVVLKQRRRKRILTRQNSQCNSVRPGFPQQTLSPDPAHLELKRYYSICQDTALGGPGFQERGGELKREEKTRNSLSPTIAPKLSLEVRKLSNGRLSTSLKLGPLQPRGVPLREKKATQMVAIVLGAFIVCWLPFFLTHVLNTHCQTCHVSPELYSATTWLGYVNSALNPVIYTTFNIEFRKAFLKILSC
Description for 5-HT2A receptor: (§1) HEK293 EBNA cells were transiently transfected with expression plasmids encoding for the human D2 or D3 or for the human 5-HT2A receptor, respectively. The cells were harvested 48 h post-transfection, washed three times with cold PBS and stored at −80° C. prior to use. The pellet was suspended in cold 50 mM Tris-HCl buffer containing 10 mM EDTA (pH 7.4) and was homogenized with a Polytron (Kinematica AG, Basel, Switzerland) for 20-30 sec at 12.000 rpm. After centrifugation at 48.000×g for 30 min at 4° C., the pellet was resuspended in cold 10 mM Tris-HCl buffer containing 0.1 mM EDTA (pH 7.4), homogenized, and centrifuged as above. This pellet was further resuspended in a smaller volume of ice cold 10 mM Tris-HCl buffer containing 0.1 mM EDTA (pH 7.4) and homogenized with a Polytron for 20-30 sec at 12.000 rpm. The protein content of this homogenate was determined with the Bio-Rad (Bradford) Protein Assay (Biorad Laboratories GmbH, München, Germany) according to the instructions of the manufacturer using gamma globulin as the standard. This homogenate was stored at −80° C. in aliquots and thawed immediately prior to use.
(§2) Aliquots of membrane preparations were thawed at RT, resuspended in assay buffer (D2, D3: 50 mM Tris-HCl, 120 mM NaCl, 5 mM MgCl2, 1 mM EDTA, 5 mM KCl, 1.5 mM CaCl2, pH=7.4; 5-HT2A: 50 mM Tris-HCl, 10 mM MgCl2, 1 mM EGTA, pH=7.4), homogenized with a Polytron for 20-30 sec at 12.000 rpm and adjusted to a final concentration of approximately 7.5 μg protein/well (D2, D3) and 15 μg protein/well (5-HT2A), respectively.
(§3) The nonspecific binding was determined with equally composed reaction mixtures in the presence of 10 μM unlabelled spiperone. Per well 45 μl of Microscint 40 (Perkin Elmer, Schwerzenbach, Switzerland) was added, plates for sealed, shaken for 20 min and counted for 3 min on a Topcount Microplate Scintillation Counter (Can berra Packard SA, Ziirich, Switzerland) with quenching correction.
(§4) The CPM value for each duplicate of a concentration of competing compound was averaged (y1), then the % specific binding was calculated according to the equation (((y1−non-specific)/(total binding−non-specific))×100). Graphs were plotted with the % specific binding using XLfit, a curve fitting program that iteratively plots the data using Levenberg-Marquardt algorithm. The single site competition analysis equation used was y=A+((B−A)/(1+((x/C)D))), where y is the % specific binding, A is the minimum y, B is the maximum y, C is the IC50, x is the log 10 of the concentration of the competing compound and D is the slope of the curve (the Hill Coefficient). […] The affinity constant (K) was calculated using the Cheng-Prusoff equation Ki=(IC50/1+([L]/Kd), where [L] is the concentration of radioligand and Kd is the dissociation constant of the radioligand at the receptor as determined by the saturation isotherm.
Description for D2 receptor: as §1, §2, §3, §4

As a reminder, the Ki is a dissociation constant, usually derived from enzyme kinetics or from competition with a known ligand. Consider `O=C(N[C@H]1CC[C@H](CCN2CCC(c3cccc4c3OCO4)CC2)CC1)N1CCc2ccccc21` [Example 74, 2,3-Dihydro-indole-1-carboxylic acid N-trans-{4-[2-(4-benzo[1,3]dioxol-4-yl-piperidin-1-yl)-ethyl]-cyclohexyl}-amide], for which the inhibitory constant (Ki) at D3 receptor is 5.12 nM; at 5-HT2A receptor, 25.4 nM; at D2 receptor it was 229 nM.

Take `O=C(N[C@H]1CC[C@H](CCN2CCC(c3cccc4c3OCO4)CC2)CC1)[C@@H](O)C(F)(F)F` [Example 39, Trans-(R)—N-{4-[2-(4-Benzo[1,3]dioxol-4-yl-piperidin-1-yl)-ethyl]-cyclohexyl}-3,3,3-trifluoro-2-hydroxy-propionamide]: the Ki came out at 19.9 nM on D3 receptor, 19.4 nM on 5-HT2A receptor and 284 nM on D2 receptor.

As to `CC(C)CC(=O)N[C@H]1CC[C@H](CCN2CCC(c3cccc4c3OCO4)CC2)CC1` [Example 24, Trans-N-{4-[2-(4-Benzo[1,3]dioxol-4-yl-piperidin-1-yl)-ethyl]-cyclohexyl}-3-methyl-butyramide], the Ki stood at 5 nM at D3 receptor, 28.5 nM on 5-HT2A receptor (setting [1]) and 239 nM at D2 receptor.

In the case of `O=C(N[C@H]1CC[C@H](CCN2CCC(c3cccc4c3OCO4)CC2)CC1)c1ccc(F)cc1` [Example 37, Trans-N-{4-[2-(4-Benzo[1,3]dioxol-4-yl-piperidin-1-yl)-ethyl]-cyclohexyl}-4-fluoro-benzamide], the Ki amounted to 4.89 nM at D3 receptor, 13.1 nM on 5-HT2A receptor and 234 nM on D2 receptor.

On to `O=C(N[C@H]1CC[C@H](CCN2CCC(c3cccc4c3OCO4)CC2)CC1)C1CCS(=O)(=O)C1` (stereo partly drawn) [Example 52, 1,1-Dioxo-tetrahydro-thiophene-3-carboxylic acid-trans-{4-[2-(4-benzo[1,3]dioxol-4-yl-piperidin-1-yl)-ethyl]-cyclohexyl}-amide], for which the inhibition constant (Ki) on D3 receptor was found to be 16.3 nM; on 5-HT2A receptor, 4.57 nM; at D2 receptor it was 130 nM.

Consider `O=C(Nc1ccc(Cl)cc1)N[C@H]1CC[C@H](CCN2CCC(c3cccc4c3OCO4)CC2)CC1` [Example 77, N-trans-1-{4-[2-(4-Benzo[1,3]dioxol-4-yl-piperidin-1-yl)-ethyl]-cyclohexyl}-3-(4-chloro-phenyl)-urea], for which the Ki is 23.6 nM on D3 receptor, 224 nM at 5-HT2A receptor (setting [1]) and 2710 nM on D2 receptor.

On to `O=C(N[C@H]1CC[C@H](CCN2CCC(c3cccc4c3OCO4)CC2)CC1)C1CC(Cl)C1` (stereo partly drawn) [Example 28, 3-Chloro-cyclobutanecarboxylic acid trans-{4-[2-(4-benzo[1,3]dioxol-4-yl-piperidin-1-yl)-ethyl]-cyclohexyl}-amide], for which the Ki was found to be 6.36 nM at D3 receptor, 18.6 nM on 5-HT2A receptor and 305 nM at D2 receptor.

Turning to `O=C(N[C@H]1CC[C@H](CCN2CCC(c3cccc4c3OCO4)CC2)CC1)[C@H](O)C(F)(F)F` [Example 38, Trans-(S)—N-{4-[2-(4-Benzo[1,3]dioxol-4-yl-piperidin-1-yl)-ethyl]-cyclohexyl}-3,3,3-trifluoro-2-hydroxy-propionamide], the Ki on D3 receptor was found to be 7.63 nM; on 5-HT2A receptor, 20.8 nM; at D2 receptor it was 209 nM.

As for `CN1CCN(CC(=O)N[C@H]2CC[C@H](CCN3CCC(c4cccc5c4OCO5)CC3)CC2)CC1` [Example 68, Trans-N-{4-[2-(4-Benzo[1,3]dioxol-4-yl-piperidin-1-yl)-ethyl]-cyclohexyl}-2-(4-methylpiperazin-1-yl)-acetamide], the Ki was 19.8 nM on D3 receptor, 31 nM at 5-HT2A receptor (setting [1]) and 104 nM on D2 receptor.

For the compound `N#Cc1ccc(C(=O)N[C@H]2CC[C@H](CCN3CCC(c4cccc5c4OCO5)CC3)CC2)cc1` [Example 14, Trans-N-{4-[2-(4-Benzo[1,3]dioxol-4-yl-piperidin-1-yl)-ethyl]-cyclohexyl}-4-cyano-benzamide], the Ki worked out at 7.79 nM on D3 receptor, 9.02 nM on 5-HT2A receptor (setting [1]) and 153 nM on D2 receptor.

As to `CC(C)(O)C(=O)N[C@H]1CC[C@H](CCN2CCC(c3cccc4c3OCO4)CC2)CC1` [Example 32, Trans-N-{4-[2-(4-Benzo[1,3]dioxol-4-yl-piperidin-1-yl)-ethyl]-cyclohexyl}-2-hydroxy-2-methyl-propionamide], the Ki is 25 nM on D3 receptor, 4.77 nM on 5-HT2A receptor and 407 nM at D2 receptor.

Turning to `O=C(N[C@H]1CC[C@H](CCN2CCC(c3cccc4c3OCO4)CC2)CC1)C1COc2ccccc2C1` (stereo partly drawn) [Example 60, Chroman-3-carboxylic acid-trans-N-{4-[2-(4-benzo[1,3]dioxol-4-yl-piperidin-1-yl)-ethyl]-cyclohexyl}-amide], the Ki worked out at 6.73 nM on D3 receptor, 21.8 nM at 5-HT2A receptor (setting [1]) and 1050 nM on D2 receptor.

Take `O=C(CC1CCCO1)N[C@H]1CC[C@H](CCN2CCC(c3cccc4c3OCO4)CC2)CC1` (stereo partly drawn) [Example 6, Trans-N-{4-[2-(4-Benzo[1,3]dioxol-4-yl-piperidin-1-yl)-ethyl]-cyclohexyl}-2-(tetrahydro-furan-2-yl)-acetamide]: the Ki worked out at 9.06 nM on D3 receptor, 21 nM on 5-HT2A receptor and 389 nM on D2 receptor.

In the case of `CC(C)C(=O)N[C@H]1CC[C@H](CCN2CCC(c3cccc4c3OCO4)CC2)CC1` [Example 23, Trans-N-{4-[2-(4-Benzo[1,3]dioxol-4-yl-piperidin-1-yl)-ethyl]-cyclohexyl}-isobutyramide], the Ki at D3 receptor was determined as 8.26 nM; on 5-HT2A receptor, 17 nM; on D2 receptor it was 397 nM.

On to `O=C(N[C@H]1CC[C@H](CCN2CCC(c3cccc4c3OCO4)CC2)CC1)c1ccccc1` [Example 9, Trans-N-{4-[2-(4-Benzo[1,3]dioxol-4-yl-piperidin-1-yl)-ethyl]-cyclohexyl}-benzamide], for which the Ki came to 3.63 nM at D3 receptor, 5.14 nM at 5-HT2A receptor and 120 nM at D2 receptor.

Take `CO[C@H]1CC[C@H](CC(=O)N[C@H]2CC[C@H](CCN3CCC(c4cccc5c4OCO5)CC3)CC2)CC1` [Example 63, Trans-N-{4-[2-(4-Benzo[1,3]dioxol-4-yl-piperidin-1-yl)-ethyl]-cyclohexyl}-2-(4-methoxy-cyclohexyl)-acetamide]: the results for the inhibitory constant (Ki) at D3 receptor, on 5-HT2A receptor (setting [1]) and at D2 receptor were 8.13 nM, 34.3 nM and 361 nM, respectively.

Consider `O=C(N[C@H]1CC[C@H](CCN2CCC(c3cccc4c3OCO4)CC2)CC1)C1CC1(F)F` (stereo partly drawn) [Example 26, Trans-2,2-Difluoro-cyclopropanecarboxylic acid {4-[2-(4-benzo[1,3]dioxol-4-yl-piperidin-1-yl)-ethyl]-cyclohexyl}-amide], for which the Ki came out at 7.72 nM on D3 receptor, 26.7 nM at 5-HT2A receptor (setting [1]) and 194 nM at D2 receptor.

For `N#CCC(=O)N[C@H]1CC[C@H](CCN2CCC(c3cccc4c3OCO4)CC2)CC1` [Example 20, Trans-N-{-4-[2-(4-Benzo[1,3]dioxol-4-yl-piperidin-1-yl)-ethyl]-cyclohexyl}-2-cyano-acetamide], the figures for the Ki at D3 receptor, on 5-HT2A receptor and on D2 receptor were 3.12 nM, 22.4 nM and 203 nM, respectively.
